Assay results from patent US7642239B2, “Inhibition of placenta growth factor (PLGF) mediated metastasis and/or angiogenesis” (Center for Molecular Medicine and Immunology, priority 2005, dated 2010).
Ends that are not written are not given here.

Key:
[1] = molecular target: T1, recombinant human Flt-1 fusion protein (Homo sapiens, UniProt P17948); test: Free peptide binding and competition ELISA, Flt-1-coated wells
T1 construct: purchased R & D Systems
Protocol: Competition assays were done with 2.5 or 25 U/ml heparin (Sigma, St. Louis, Mo.). BP1, 3, 4, and a scrambled version of BP3 (scrBP3) were synthesized with a linker followed by the FLAG epitope ([…] SEQ ID NO:5) at the C-terminus. Thirty minutes after addition of the first reagent, the second reagent was added, followed by another 30 minute incubation. Peptide binding was assessed by probing for the FLAG epitope (Prickett et al., Biotechniques 7:580-9, 1989; Castrucci et al., J. Virol. 66:4647-53, 1992). Absorbance was read at 490 nm.

[2] = test system: MCF-7 human breast cancer cells; format: cell-based; details: human, 24 h, 2 μM
Protocol: MTT (3-(4,5-dimethylthiazolyl-2)-2,5-diphenyltetrazolium bromide, Sigma) assays were performed under conditions of low serum (1%) to determine PlGF effects on cell viability, the toxicity of the peptides, and their effect on PlGF-mediated breast tumor cell growth (Mosmann, 1983, J Immunol Meth 65:55-63; Modrak et al., 2000, Biochem Biophys Res Commun 268:603-606). Peptide concentration was 1-2 μM, and the concentration of exogenous PlGF was 2 nM. The human breast tumor lines tested were: MDA-MB-231, MDA-MB-468 and MCF-7 (ATCC, Mannasses, Va.). Briefly, 96-well plates were seeded with 5-10×10^4 cells/ml in medium containing 1% fetal bovine serum (FBS). After 24 h, cells were treated with individual peptides at a concentration of 1-2 μM (4 binding peptides), in quadruplicate, and/or rhuPlGF at a 2-nM concentration. After the designated time points, 0.5 mg/ml MTT (5 mg/ml stock diluted 1:10 in RPMI medium with no serum) was added to the wells (Mosmann, 1983). When purple crystals were clearly visible in the cells, and the plate appeared to be fully developed, the reaction was terminated with acid alcohol (0.04M HCl in isopropanol). Absorbance of the dissolved crystals was read at 570 nm. The 24-h time point was chosen because the in vitro effects of PlGF on tumor cell migration were measurable at this time (see wound-healing assay below). These assays were also performed using medium with 10% FBS, with similar results.

MDA-MB-468 = test: Wound-healing (motility) assay, MDA-MB-468; format: cell-based, human; details: for Relative activity: unit assumed; for Migrating cells: 18-24 h
Protocol: MCF-7, MDA-MB-23 1, and MDA-MB-468 breast tumor cell lines or HECs were seeded onto sterile glass coverslips in Petri dishes or six-well plates. When the cells were 70-80% confluent, the monolayers were scratched with a sterile plastic pipet tip.
Inhibitor concentrations were 50 μM PD98059 (PD98) (mitogen activated protein kinase-kinase 1 [MEK1] inhibitor), 5 nM Wortmannin (phosphatidyl inositol 3 kinase [PI3K] inhibitor), or human recombinant soluble Flt-1 (sFlt-1) (R&D Systems). […] Cells were pre-incubated with PD98 and Wortmannin for 15-30 min before addition of PlGF. Stained (Wright-Giemsa) and mounted coverslips were examined microscopically. Five to ten 100× fields were evaluated by counting the number of cells separated from the wound edges and which appeared to be migrating toward the center of the wound. Results are reported as the average number of cells migrating into the wound/100× field. In some cases data from separate experiments were combined to accommodate inclusion of various treatments in the tables.
Antibody concentration was 1 μg/ml. MEK1 inhibitor, PD98059 (PD98), 50 μM. PI3K inhibitor, Wortmannin, 5 nM. […] Values for antibody and inhibitor treatments were from separate experiments which included all relevant controls. […] UT denotes untreated controls. *P<0.01 (ANOVA) compared to UT; † P<0.02 (ANOVA) compared to PlGF only. ‡ P<0.001 (ANOVA) compared to PlGF only.

MDA-MB-231 mfp tumor = test: Orthotopic mammary fat pad (mfp) MDA-MB-231 model; format: in vivo, SCID mice
Excerpt: MDA-MB-231, grown in tissue culture, was also implanted in the mammary fat pad (mfp) of SCID mice (3×10^6 cells, 4-5 mice/group). In this model, large pulmonary metastases are less likely to develop (Richert et al., Breast Cancer Res. 7:R819-27, 2005). Peptide treatment was commenced on day 5 after implantation, when small tumors were palpable in all mice (8 treatments). Three days after the final peptide treatment, tumors were removed and weighed. Lungs were harvested and examined microscopically for metastases, as described above.

MDA-MB-468 xenografts = format: in vivo, mice; details: 200 μg/dose i.p., twice-weekly
Protocol: FIG. 5. Treatment of mice bearing MDA-MB-468 xenografts with peptides BP1 or BP3. Mice were treated every 3-4 days with 200 ug BP as described in Methods. Tumor volume was measured 2×/week. *P<0.05 at days 10, 14, 17 and 24 (change in tumor volume (ANOVA)). FIG. 5A—tumors treated with binding peptide 1. FIG. 5B—tumors treated with binding peptide 3.
Mice bearing MDA-MB-468 xenografts (average tumor volume: 0.19 cm^3) were treated with i.p. injections of individual peptides (200 μg/dose) (FIG. 5). After 4 weeks of twice-weekly treatment, tumor growth was inhibited by 49% and 58% in mice treated with BP1 (FIG. 5A) or BP3 (FIG. 5B), respectively. The effect of BP3 on tumor growth was apparent after 2 weeks of treatment (FIG. 5B), whereas the inhibitory effect of BP1 was evident after one week (FIG. 5A). The average changes in individual tumor volumes during treatment with BP1 were significant (P<0.05) at days 10, 14, 17 and 24 (FIG. 5A). Treatment with BP2 was ineffective; tumors continued to grow at almost the same rate as the mock-treated controls (results not shown). BP4 treatment produced a 20% inhibition of tumor growth (results not shown).

T1 sequence (P17948 with tags, fused parts or gaps limits assumed): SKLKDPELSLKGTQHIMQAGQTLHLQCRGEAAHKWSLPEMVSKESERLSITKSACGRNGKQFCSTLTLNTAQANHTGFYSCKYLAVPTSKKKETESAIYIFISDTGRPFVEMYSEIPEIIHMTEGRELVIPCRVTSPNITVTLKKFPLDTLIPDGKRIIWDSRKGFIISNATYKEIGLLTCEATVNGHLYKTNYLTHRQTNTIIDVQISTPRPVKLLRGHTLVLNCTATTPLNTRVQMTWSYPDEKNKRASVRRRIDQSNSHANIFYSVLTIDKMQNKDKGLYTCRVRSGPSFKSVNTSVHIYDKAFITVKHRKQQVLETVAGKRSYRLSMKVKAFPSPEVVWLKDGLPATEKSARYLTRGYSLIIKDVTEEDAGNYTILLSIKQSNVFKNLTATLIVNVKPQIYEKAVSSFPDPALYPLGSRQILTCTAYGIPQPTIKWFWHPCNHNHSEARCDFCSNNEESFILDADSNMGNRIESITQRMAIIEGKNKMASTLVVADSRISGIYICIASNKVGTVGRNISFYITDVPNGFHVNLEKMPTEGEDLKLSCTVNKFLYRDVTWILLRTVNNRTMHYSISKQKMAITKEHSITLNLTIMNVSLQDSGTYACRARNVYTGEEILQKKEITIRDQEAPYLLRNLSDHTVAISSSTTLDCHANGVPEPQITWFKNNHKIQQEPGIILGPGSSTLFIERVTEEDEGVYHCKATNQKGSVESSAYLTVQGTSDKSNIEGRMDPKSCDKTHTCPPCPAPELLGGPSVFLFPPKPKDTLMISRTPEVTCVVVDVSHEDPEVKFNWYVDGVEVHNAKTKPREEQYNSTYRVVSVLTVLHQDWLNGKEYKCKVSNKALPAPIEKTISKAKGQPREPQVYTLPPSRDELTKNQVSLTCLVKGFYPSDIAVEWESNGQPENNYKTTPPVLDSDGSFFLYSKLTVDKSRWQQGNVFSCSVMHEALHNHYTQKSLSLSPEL

SHRYRLAIQLHASDSSSSCV [BP1]
binding to Flt-1, fold over background [1]: 10 fold | inhibition at 1 µM ([1]; 1 μM BP1 followed by 2.5 U/ml heparin, read-out: inhibition of BP1 binding to Flt-1, BP1 added prior to heparin): 13% | binding to immobilized Flt-1 (A490), BP1 only ([1]; 5 μM BP1 only): 0.527±0.025 | binding to immobilized Flt-1 (A490), with added free Flt-1 ([1]; 5 μM BP1 with added free Flt-1 (2 nM)): 0.327±0.127 | decrease in BP1 binding to Flt-1, heparin added before BP1 ([1]; 2.5 U/ml heparin followed by 1 μM BP1): 64% | effect of PlGF on the binding of BP1 to Flt-1 ([1]; PlGF between 1 and 100 nM): no significant effect | decrease in binding of BP1 to immobilized Flt-1 by free Flt-1 ([1]; free Flt-1 2 nM, 5 μM BP1): 38% | binding to Flt-1 (A490) ([1]; peptide with C-terminal FLAG epitope): 0.886±0.096 | viability lowered, peptide alone [2]: 21% | Relative activity (MDA-MB-468; PlGF 2 nM ± test agent, relative to PlGF-only value): 97% | Relative activity (MDA-MB-468; VEGF 2 nM ± test agent, relative to VEGF-only value): 113% | Migrating cells (MDA-MB-468; growth factor PlGF 2 nM ± test agent (Flt-1 2 nM, peptide 2 μM, antibody 1 μg/ml)): 14.3 ± 8.1 cells/100× field | Migrating cells (MDA-MB-468; growth factor VEGF 2 nM ± test agent): 15.8 ± 9.5 cells/100× field | tumor weight (MDA-MB-231 mfp tumor; 8 peptide treatments, mock-treated 0.423±0.089): 0.345 ± 0.095 g | reduction in metastases (MDA-MB-231 mfp tumor; lung micrometastases): 82% | micrometastasis counts per mouse (MDA-MB-231 mfp tumor; lung, mock-treated 3.4±1.9): 0.6±0.5 | decrease in tumor weight (MDA-MB-231 mfp tumor; vs mock-treated, did not reach statistical significance): 23% | duration of treatment after which effect on tumor growth was apparent (MDA-MB-468 xenografts): one week
